Test results as given in PubChem BioAssay (NCI).
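Where inhibition never reached the appropriate level, the endpoint shown equals the highest concentration tested. Otherwise, values were interpolated linearly from a five-concentration, 48-hour dose response in 96-well plates. Here, GI50 denotes the concentration required for 50% inhibition of growth. TGI marks complete inhibition of growth.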

What was measured:
Assay in all cases: NCI anticancer screen, dose series, 48 h
786-0 renal = tested on: 786-0 renal
A498 renal = tested on: A498 renal
A549 NSCLC = tested on: A549 NSCLC
ACHN renal = tested on: ACHN renal
BT-549 breast = tested on: BT-549 breast
CAKI-1 renal = tested on: CAKI-1 renal
CCRF-CEM leukemia = tested on: CCRF-CEM leukemia
COLO 205 colon = tested on: COLO 205 colon
DU-145 prostate = tested on: DU-145 prostate
EKVX NSCLC = tested on: EKVX NSCLC
HCC-2998 colon = tested on: HCC-2998 colon
HCT-116 colon = tested on: HCT-116 colon
HCT-15 colon = tested on: HCT-15 colon
HL-60(TB) leukemia = tested on: HL-60(TB) leukemia
HOP-62 NSCLC = tested on: HOP-62 NSCLC
HOP-92 NSCLC = tested on: HOP-92 NSCLC
HS 578T breast = tested on: HS 578T breast
HT29 colon = tested on: HT29 colon
IGROV1 ovarian = tested on: IGROV1 ovarian
K-562 leukemia = tested on: K-562 leukemia
KM12 colon = tested on: KM12 colon
LOX IMVI melanoma = tested on: LOX IMVI melanoma
M14 melanoma = tested on: M14 melanoma
MALME-3M melanoma = tested on: MALME-3M melanoma
MCF7 breast = tested on: MCF7 breast
MDA-MB-231 breast = tested on: MDA-MB-231 breast
MDA-MB-435 = tested on: MDA-MB-435
MOLT-4 leukemia = tested on: MOLT-4 leukemia
NCI-H226 lung = tested on: NCI-H226 lung
NCI-H23 lung = tested on: NCI-H23 lung
NCI-H460 lung = tested on: NCI-H460 lung
NCI-H522 lung = tested on: NCI-H522 lung
NCI/ADR-RES ovarian = tested on: NCI/ADR-RES ovarian
OVCAR-3 ovarian = tested on: OVCAR-3 ovarian
OVCAR-4 ovarian = tested on: OVCAR-4 ovarian
OVCAR-5 ovarian = tested on: OVCAR-5 ovarian
OVCAR-8 ovarian = tested on: OVCAR-8 ovarian
PC-3 prostate = tested on: PC-3 prostate
RPMI-8226 leukemia = tested on: RPMI-8226 leukemia
RXF 393 renal = tested on: RXF 393 renal
SF-268 CNS = tested on: SF-268 CNS
SF-295 CNS = tested on: SF-295 CNS
SF-539 CNS = tested on: SF-539 CNS
SK-MEL-2 melanoma = tested on: SK-MEL-2 melanoma
SK-MEL-28 melanoma = tested on: SK-MEL-28 melanoma
SK-MEL-5 melanoma = tested on: SK-MEL-5 melanoma
SK-OV-3 ovarian = tested on: SK-OV-3 ovarian
SN12C renal = tested on: SN12C renal
SNB-19 CNS = tested on: SNB-19 CNS
SNB-75 CNS = tested on: SNB-75 CNS
SR leukemia = tested on: SR leukemia
SW-620 colon = tested on: SW-620 colon
T-47D breast = tested on: T-47D breast
TK-10 renal = tested on: TK-10 renal
U251 CNS = tested on: U251 CNS
UACC-257 melanoma = tested on: UACC-257 melanoma
UACC-62 melanoma = tested on: UACC-62 melanoma
UO-31 renal = tested on: UO-31 renal

C=CC(=O)N1C[C@H](COc2nc(Nc3cnn(C)c3)nc3[nH]cc(Cl)c23)[C@@H](OC)C1 gave a GI50 (786-0 renal) of 1.96 µM, a TGI (786-0 renal) of 29.6 µM and a GI50 (A498 renal) of 0.26 µM. For the same compound, the TGI (A498 renal) was 1.14 µM, the GI50 (A549 NSCLC) was 2.8 µM and the TGI (A549 NSCLC) was 14.8 µM. The GI50 (ACHN renal) was 0.993 µM, the TGI (ACHN renal) was 13.3 µM and the GI50 (BT-549 breast) was 0.992 µM. For the same compound, the TGI (BT-549 breast) was 8.34 µM, the GI50 (CAKI-1 renal) was 1 µM and the TGI (CAKI-1 renal) was 3.67 µM. For the same compound, the GI50 (CCRF-CEM leukemia) was 0.635 µM, the TGI (CCRF-CEM leukemia) was over 100 µM and the GI50 (COLO 205 colon) was 2.83 µM. The TGI (COLO 205 colon) was 14.6 µM, the GI50 (DU-145 prostate) was 1.45 µM and the TGI (DU-145 prostate) was 15.4 µM. The GI50 (EKVX NSCLC) was 1.23 µM, the TGI (EKVX NSCLC) was 8.55 µM and the GI50 (HCC-2998 colon) was 5.47 µM. It also gave a TGI (HCC-2998 colon) of 19.4 µM, a GI50 (HCT-116 colon) of 1.24 µM and a TGI (HCT-116 colon) of 14.3 µM. For the same compound, the GI50 (HCT-15 colon) was 4.74 µM, the TGI (HCT-15 colon) was 24.3 µM and the GI50 (HL-60(TB) leukemia) was 3.31 µM. For the same compound, the TGI (HL-60(TB) leukemia) was 13 µM, the GI50 (HOP-62 NSCLC) was 4.12 µM and the TGI (HOP-62 NSCLC) was 28.5 µM. For the same compound, the GI50 (HOP-92 NSCLC) was 1.25 µM, the TGI (HOP-92 NSCLC) was 4.87 µM and the GI50 (HS 578T breast) was 1.01 µM. For the same compound, the TGI (HS 578T breast) was 4.31 µM, the GI50 (HT29 colon) was 5.24 µM and the TGI (HT29 colon) was 48.6 µM. It also gave a GI50 (IGROV1 ovarian) of 0.438 µM, a TGI (IGROV1 ovarian) of 2.79 µM and a GI50 (K-562 leukemia) of 4.75 µM. The TGI (K-562 leukemia) was over 100 µM, the GI50 (KM12 colon) was 0.342 µM and the TGI (KM12 colon) was 14 µM. It also gave a GI50 (LOX IMVI melanoma) of 0.894 µM, a TGI (LOX IMVI melanoma) of 12.2 µM and a GI50 (M14 melanoma) of 4.49 µM. The TGI (M14 melanoma) was 20.3 µM, the GI50 (MALME-3M melanoma) was 10.9 µM and the TGI (MALME-3M melanoma) was 24.4 µM. It also gave a GI50 (MCF7 breast) of 1.22 µM, a TGI (MCF7 breast) of 13.8 µM and a GI50 (MDA-MB-231 breast) of 2.84 µM. It also gave a TGI (MDA-MB-231 breast) of 16.1 µM, a GI50 (MDA-MB-435) of 3 µM and a TGI (MDA-MB-435) of 16.4 µM. For the same compound, the GI50 (MOLT-4 leukemia) was 2.02 µM, the TGI (MOLT-4 leukemia) was 37.9 µM and the GI50 (NCI-H226 lung) was 0.97 µM. The TGI (NCI-H226 lung) was 21.7 µM, the GI50 (NCI-H23 lung) was 4.1 µM and the TGI (NCI-H23 lung) was 18.9 µM. The GI50 (NCI-H460 lung) was 4.13 µM, the TGI (NCI-H460 lung) was 18.6 µM and the GI50 (NCI-H522 lung) was 0.431 µM. It also gave a TGI (NCI-H522 lung) of 17.6 µM, a GI50 (NCI/ADR-RES ovarian) of 18 µM and a TGI (NCI/ADR-RES ovarian) of 65.3 µM. It also gave a GI50 (OVCAR-3 ovarian) of 2.28 µM, a TGI (OVCAR-3 ovarian) of 18 µM and a GI50 (OVCAR-4 ovarian) of 2.15 µM. The TGI (OVCAR-4 ovarian) was 14.1 µM, the GI50 (OVCAR-5 ovarian) was 3.18 µM and the TGI (OVCAR-5 ovarian) was 48.4 µM. It also gave a GI50 (OVCAR-8 ovarian) of 4.74 µM, a TGI (OVCAR-8 ovarian) of 24.5 µM and a GI50 (PC-3 prostate) of 3.98 µM. It also gave a TGI (PC-3 prostate) of 55.3 µM, a GI50 (RPMI-8226 leukemia) of 3.29 µM and a TGI (RPMI-8226 leukemia) of 22.7 µM. For the same compound, the GI50 (RXF 393 renal) was 0.509 µM, the TGI (RXF 393 renal) was 2.88 µM and the GI50 (SF-268 CNS) was 0.965 µM. It also gave a TGI (SF-268 CNS) of 15.5 µM, a GI50 (SF-295 CNS) of 11.6 µM and a TGI (SF-295 CNS) of 24.2 µM. It also gave a GI50 (SF-539 CNS) of 1.28 µM, a TGI (SF-539 CNS) of 4.61 µM and a GI50 (SK-MEL-2 melanoma) of 11.5 µM. It also gave a TGI (SK-MEL-2 melanoma) of 25.7 µM, a GI50 (SK-MEL-28 melanoma) of 8.43 µM and a TGI (SK-MEL-28 melanoma) of 25.9 µM. It also gave a GI50 (SK-MEL-5 melanoma) of 11.5 µM, a TGI (SK-MEL-5 melanoma) of 23.6 µM and a GI50 (SK-OV-3 ovarian) of 0.225 µM. It also gave a TGI (SK-OV-3 ovarian) of 1.2 µM, a GI50 (SN12C renal) of 2.29 µM and a TGI (SN12C renal) of 15.7 µM. It also gave a GI50 (SNB-19 CNS) of 3.41 µM, a TGI (SNB-19 CNS) of 16.2 µM and a GI50 (SNB-75 CNS) of 0.357 µM. It also gave a TGI (SNB-75 CNS) of 2.42 µM, a GI50 (SR leukemia) of 0.65 µM and a TGI (SR leukemia) of over 100 µM. The GI50 (SW-620 colon) was 1.15 µM, the TGI (SW-620 colon) was 16.2 µM and the GI50 (T-47D breast) was 2.01 µM. It also gave a TGI (T-47D breast) of 17.6 µM, a GI50 (TK-10 renal) of 1.16 µM and a TGI (TK-10 renal) of 10.6 µM. The GI50 (U251 CNS) was 0.991 µM, the TGI (U251 CNS) was 17.5 µM and the GI50 (UACC-257 melanoma) was 6.64 µM. It also gave a TGI (UACC-257 melanoma) of 28 µM, a GI50 (UACC-62 melanoma) of 2.89 µM and a TGI (UACC-62 melanoma) of 14.3 µM. The GI50 (UO-31 renal) was 1.55 µM and the TGI (UO-31 renal) was 11 µM.
